Literature values, collected in US11384033B2, “Compositions with improved urease-inhibiting effect comprising (thio)phosphoric acid triamide and further compounds such as amines and colorants” (BASF SE, priority 2014, dated 2022).

Settings: de-ionized water at 25° C. and atmospheric pressure

CC(O)CO (stereo not shown) [propane-1,2-diol]
pKa value: 14.9
